Assay results as given in patent US10392422B2, “Macrocyclic broad spectrum antibiotics” (priority 2014, dated 2019).
In brackets after ≈: the same amount, converted by molar mass. Where two headings read alike, the source gives them in different places.

Tests used:
Test in all cases: MIC, broth micro-dilution technique (CLSI)
[1] = test system: Escherichia coli MC4100 harboring the IMP4213; type: cell-based; conditions: 35° C., 22 hours; for MIC: Escherichia coli, 22 h
Outline: (§1)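 CLSI broth microdilution in cation-adjusted Mueller Hinton broth with 0.002% v/v Tween-80. Compounds were serially 2-fold diluted over 10 concentrations from 64 μg/ml, or from 4 μg/mL in a modified protocol; inoculum at final OD600 0.0005, incubated 35° C for 22 hours.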

[2] = test system: Methicillin Resistant Staphylococcus aureus strain USA 300 (NRS384); type: cell-based; conditions: for MIC: Staphylococcus aureus, 22 h, read-out: MIC (μg/mL) S. aureus
Outline: as §1

MRSA COL (NRS100) = type: cell-based, Staphylococcus aureus; conditions: for MIC: Staphylococcus aureus, 22 h, read-out: MIC (μg/mL) (COL)
Outline: as §1

[3] = read-out: MIC (μg/mL) E. coli, Table 2 modified protocol: serial 2-fold dilutions starting from 4 μg/mL
[4] = Table 2 modified protocol: serial 2-fold dilutions starting from 4 μg/mL, 35° C., 22 hours
[5] = read-out: MIC (μg/mL) E. coli, Table 1 protocol: serial 2-fold dilutions starting from 64 μg/ml
[6] = Table 1 protocol: serial 2-fold dilutions starting from 64 μg/ml, 35° C., 22 hours
[7] = Table 2 modified protocol: serial 2-fold dilutions starting from 4 μg/mL

Compound | MIC (μg/mL) E. coli [1, 7] [µg/mL] | MIC (μg/mL) S. aureus [2, 4] [µg/mL] | MIC (μg/mL) (COL) (MRSA COL (NRS100); [4]) [µg/mL] | also measured
CC(NC(=O)[C@@H]1Cc2ccc(O)c(c2)-c2cc(ccc2O)[C@H](N(C)C(=O)[C@H](CCCCN)NC(=O)c2ccc(-c3ccc(Cl)cc3)cc2)C(=O)N[C@@H](C)C(=O)N1)C(=O)Cn1cc(C(N)=O)nn1 (stereo partly drawn) [Compound 246] | – | – | – | MIC [1, 3]: > 4 µg/mL; MIC [2, 4]: 4 µg/mL (≈ 4.28 µM); MIC (MRSA COL (NRS100); [4]): 3 µg/mL (≈ 3.21 µM)
C[C@H](NC(=O)[C@@H]1Cc2ccc(O)c(c2)-c2cc(ccc2O)[C@H](N(C)C(=O)[C@H](CCCCN)NC(=O)c2ccc(-c3ccc(Cl)cc3)cc2)C(=O)N[C@@H](C)C(=O)N1)C(=O)CF [Compound 247] | – | – | – | MIC [1, 3]: > 4 µg/mL; MIC [2, 4]: 2 µg/mL (≈ 2.37 µM); MIC (MRSA COL (NRS100); [4]): 1 µg/mL (≈ 1.19 µM)
CCOS(=O)(=O)/C=C/[C@H](C)NC(=O)[C@@H]1Cc2ccc(O)c(c2)-c2cc(ccc2O)[C@H](N(C)C(=O)[C@H](CCCCN)NC(=O)c2ccc(-c3ccc(Cl)cc3)cc2)C(=O)N[C@@H](C)C(=O)N1 [Compound 248] | – | – | – | MIC [1, 5]: > 64 µg/mL; MIC [2]: 21 µg/mL (≈ 22.9 µM); MIC (MRSA COL (NRS100)): 4 µg/mL (≈ 4.36 µM)
C[C@@H]1NC(=O)[C@@H](N(C)C(=O)[C@H](CCCCN)NC(=O)c2ccc(-c3ccc(Cl)cc3)cc2)c2ccc(O)c(c2)-c2cc(ccc2O)C[C@@H](C(=O)N[C@@H](C)/C=C/S(N)(=O)=O)NC1=O [Compound 249] | – | – | – | MIC [1, 5]: 48 µg/mL (≈ 54 µM); MIC [2]: 32 µg/mL (≈ 36 µM); MIC (MRSA COL (NRS100)): 16 µg/mL (≈ 18 µM)
C[C@@H]1NC(=O)[C@@H](N(C)C(=O)[C@H](CCCCN)NC(=O)c2ccc(-c3ccc(Cl)cc3)cc2)c2ccc(O)c(c2)-c2cc(ccc2O)C[C@@H](C(=O)N[C@@H](C)C(=O)c2ccccn2)NC1=O [Compound 250] | – | – | – | MIC [1, 5]: 64 µg/mL (≈ 72 µM); MIC [2, 6]: 64 µg/mL (≈ 72 µM); MIC (MRSA COL (NRS100); [6]): 11 µg/mL (≈ 12.4 µM)
COC(=O)/C=C/[C@H](C)NC(=O)[C@@H]1Cc2ccc(O)c(c2)-c2cc(ccc2O)[C@H](N(C)C(=O)[C@H](CCCCN)NC(=O)c2ccc(-c3ccc(Cl)cc3)cc2)C(=O)N[C@@H](C)C(=O)N1 [Compound 251] | – | – | – | MIC [1, 5]: > 64 µg/mL; MIC [2]: 64 µg/mL (≈ 73.8 µM); MIC (MRSA COL (NRS100)): 16 µg/mL (≈ 18.4 µM)
C[C@@H]1NC(=O)[C@@H](N(C)C(=O)[C@H](CCCCN)NC(=O)c2ccc(-c3ccc(Cl)cc3)cc2)c2ccc(O)c(c2)-c2cc(ccc2O)C[C@@H](C(=O)NCC(=O)C2CO2)NC1=O (stereo partly drawn) [Compound 252] | – | – | – | MIC [1, 3]: > 4 µg/mL; MIC [2, 4]: > 4 µg/mL; MIC (MRSA COL (NRS100); [4]): > 4 µg/mL
C[C@@H]1NC(=O)[C@@H](N(C)C(=O)[C@H](CCCCN)NC(=O)c2ccc(-c3ccc(Cl)cc3)cc2)c2ccc(O)c(c2)-c2cc(ccc2O)C[C@@H](C(=O)NCC(=O)CF)NC1=O [Compound 253] | – | – | – | MIC [1, 3]: > 4 µg/mL; MIC [2, 4]: > 4 µg/mL; MIC (MRSA COL (NRS100); [4]): 4 µg/mL (≈ 4.82 µM)
CC(=O)OCC(=O)CNC(=O)[C@@H]1Cc2ccc(O)c(c2)-c2cc(ccc2O)[C@H](N(C)C(=O)[C@H](CCCCN)NC(=O)c2ccc(-c3ccc(Cl)cc3)cc2)C(=O)N[C@@H](C)C(=O)N1 [Compound 254] | – | – | – | MIC [1, 3]: > 4 µg/mL; MIC [2, 4]: 4 µg/mL (≈ 4.6 µM); MIC (MRSA COL (NRS100); [4]): 2 µg/mL (≈ 2.3 µM)
C[C@H](NC(=O)[C@@H]1Cc2ccc(O)c(c2)-c2cc(ccc2O)[C@H](N(C)C(=O)[C@H](CCCCN)NC(=O)c2ccc(-c3ccc(Cl)cc3)cc2)C(=O)N[C@@H](C)C(=O)N1)C(=O)CN=[N+]=[N-] [Compound 255] | – | – | – | MIC [1, 5]: > 64 µg/mL; MIC [2]: 12 µg/mL (≈ 13.9 µM); MIC (MRSA COL (NRS100)): 3 µg/mL (≈ 3.46 µM)
CCCCCCCCCCS(=O)(=O)N[C@@H](CCCCN)C(=O)N(C)[C@@H]1C(=O)N[C@@H](C)C(=O)N[C@H](C(=O)N[C@@H](C)C(C)=O)Cc2ccc(OCCN)c(c2)-c2cc1ccc2OCCN.O=CO [Compound 256] | >4 | 0.063 | 0.016 | –
CCCCCCCCCCS(=O)(=O)N[C@@H](CCCCN)C(=O)N(C)[C@@H]1C(=O)N[C@@H](C)C(=O)N[C@H](C(=O)N[C@@H](C)C(=O)c2nnn[nH]2)Cc2ccc(OCCN)c(c2)-c2cc1ccc2OCCN.O=CO [Compound 258] | 4 | 0.047 | 0.012 | –
CCCCCCCCS(=O)(=O)N[C@@H](CO)C(=O)N(C)[C@@H]1C(=O)N[C@@H](C)C(=O)N[C@H](C(=O)N[C@@H](C)C(C)=O)Cc2ccc(OCCN)c(c2)-c2cc1ccc2OCCN.O=CO [Compound 259] | >4 | 0.75 | 0.38 | –
CCCCCCCCCC(=O)N[C@@H](CCSC)C(=O)N(C)[C@@H]1C(=O)N[C@@H](C)C(=O)N[C@H](C(=O)N[C@@H](C)C(C)=O)Cc2ccc(OCCN)c(c2)-c2cc1ccc2OCCN.O=CO [Compound 261] | >4 | 1.5 | 0.38 | –
CCCCCCCCCC(=O)N[C@@H](CC[S+](C)[O-])C(=O)N(C)[C@@H]1C(=O)N[C@@H](C)C(=O)N[C@H](C(=O)N[C@@H](C)C(C)=O)Cc2ccc(OCCN)c(c2)-c2cc1ccc2OCCN (stereo partly drawn) [Compound 262] | >4 | >4 | 2 (≈ 2.3 µM) | –
CCCCCCCCCC(=O)N[C@@H](CO)C(=O)N(C)[C@@H]1C(=O)N[C@@H](C)C(=O)N[C@H](C(=O)N[C@@H](C)C(C)=O)Cc2ccc(OCCN)c(c2)-c2cc1ccc2OCCN.O=CO [Compound 264] | >4 | 2 | 0.75 | –
CCCCCCCCCC(=O)N[C@@H](CO)C(=O)N(C)[C@@H]1C(=O)N[C@@H](C)C(=O)N[C@H](C(=O)N[C@@H](C)C(=O)c2nnn[nH]2)Cc2ccc(OCCN)c(c2)-c2cc1ccc2OCCN.O=CO [Compound 265] | 4 | 1 | 0.25 | –
CCCCCCCCCC(=O)N[C@@H](CC(N)=O)C(=O)N(C)[C@@H]1C(=O)N[C@@H](C)C(=O)N[C@H](C(=O)N[C@@H](C)C(C)=O)Cc2ccc(OCCN)c(c2)-c2cc1ccc2OCCN.O=CO [Compound 266] | >4 | 4 | 1.5 | –
CCCCCCCCCC(=O)NCC(=O)N(C)[C@@H]1C(=O)N[C@@H](C)C(=O)N[C@H](C(=O)N[C@@H](C)C(C)=O)Cc2ccc(OCCN)c(c2)-c2cc1ccc2OCCN.O=CO [Compound 267] | >4 | 1.5 | 0.5 | –
CCCCCCCCCCNCCC(=O)N(C)[C@@H]1C(=O)N[C@@H](C)C(=O)N[C@H](C(=O)N[C@@H](C)C(C)=O)Cc2ccc(OCCN)c(c2)-c2cc1ccc2OCCN.O=CO [Compound 268] | 2.5 | 2.1 | 1 | –
CCCCCCCCCCNCC(=O)N(C)[C@@H]1C(=O)N[C@@H](C)C(=O)N[C@H](C(=O)N[C@@H](C)C(C)=O)Cc2ccc(OCCN)c(c2)-c2cc1ccc2OCCN.O=CO [Compound 269] | >4 | 0.38 | 0.13 | –
CCCCCCCCCCNCCC(=O)N[C@@H](CCCCN)C(=O)N(C)[C@@H]1C(=O)N[C@@H](C)C(=O)N[C@H](C(=O)N[C@@H](C)C(C)=O)Cc2ccc(OCCN)c(c2)-c2cc1ccc2OCCN.O=CO [Compound 270] | – | – | – | MIC (μg/mL) E. coli ([1]; Table 1 protocol: serial 2-fold dilutions starting from 64 μg/ml): 8 µg/mL; MIC (μg/mL) S. aureus [2, 6]: 0.25 µg/mL; MIC (μg/mL) (COL) (MRSA COL (NRS100); [6]): 0.063 µg/mL
CCCCCCCCCCNCCC(=O)N[C@@H](CCCCN)C(=O)N(C)[C@@H]1C(=O)N[C@@H](C)C(=O)N[C@H](C(=O)N[C@@H](C)C(=O)c2nnn[nH]2)Cc2ccc(OCCN)c(c2)-c2cc1ccc2OCCN.O=CO [Compound 271] | 4 | 0.047 | 0.016 | –
CCCCc1ccc(-c2ccc(C(=O)N[C@@H](CCCCN)C(=O)N(C)[C@@H]3C(=O)N[C@@H](C)C(=O)N[C@H](C(=O)N[C@@H](C)C(C)=O)Cc4ccc(OCCN)c(c4)-c4cc3ccc4OCCN)cc2)cc1 [Compound 272] | – | – | – | MIC [1, 3]: 0.25 µg/mL (≈ 0.268 µM); MIC [2, 4]: 0.13 µg/mL (≈ 0.139 µM); MIC (MRSA COL (NRS100); [4]): 0.063 µg/mL (≈ 0.0675 µM)
